Among the data in patent publication US20240327389A1, “LACTONE AND LACTAM CONTAINING COMPOUNDS USEFUL AS IMMUNOMODULATORS” (BRISTOL-MYERS SQUIBB COMPANY, priority 2021, published 2024) are IC50 values, retold here.

In the experiment the target is PD-1/PD-L1 interaction (PD-1-Ig / PD-L1-His) (Homo sapiens (Human), UniProt Q9NZQ7). Nature of the experiment: PD-1/PD-L1 Homogenous Time-Resolved Fluorescence (HTRF) binding assay. To be noted: PD-L1-His 10 nM final, PD-1-Ig 20 nM final. From the text: The ability of the compounds of the invention to bind to PD-L1 was investigated using a PD-1/PD-L1 Homogenous Time-Resolved Fluorescence (HTRF) binding assay.
The interaction of PD-1 and PD-L1 can be assessed using soluble, purified preparations of the extracellular domains of the two proteins. The PD-1 and PD-L1 protein extracellular domains were expressed as fusion proteins with detection tags, for PD-1, the tag was the Fc portion of Immunoglobulin (PD-1-Ig) and for PD-L1 it was the 6 histidine motif (PD-L1-His). All binding studies were performed in an HTRF assay buffer consisting of dPBS supplemented with 0.1% […] bovine serum albumin and 0.05% (v/v) Tween-20. For the h/PD-L1-His binding assay, inhibitors were pre-incubated with PD-L1-His (10 nM final) for 15 m in 4 μl of assay buffer, followed by addition of PD-1-Ig (20 nM final) in 1 μl of assay buffer and further incubation for 15 m. HTRF detection was achieved using europium crypate-labeled anti-Ig (1 nM final) and allophycocyanin (APC) labeled anti-His (20 nM final). Antibodies were diluted in HTRF detection buffer and 5 μl was dispensed on top of the binding reaction. The reaction mixture was allowed to equilibrate for 30 minutes and the resulting signal (665 nm/620 nm ratio) was obtained using an EnVision fluorometer. Additional binding assays were established between the human proteins PD-1-Ig/PD-L2-His (20 & 5 nM, respectively) and CD80-His/PD-L1-Ig (100 & 10 nM, respectively).
Recombinant Proteins: Human PD-1 (25-167) with a C-terminal human Fc domain of immunoglobulin G (Ig) epitope tag [hPD-1 (25-167)-3S-IG] and human PD-L1 (18-239) with a C-terminal His epitope tag [hPD-L1(18-239)-TVMV-His] were expressed in HEK293T cells and purified sequentially by ProteinA affinity chromatography and size exclusion chromatography. Human PD-L2-His and CD80-His was obtained through commercial sources.
Homogenous Time-Resolved Fluorescence (HTRF) Assays of Binding of Soluble PD-1 to Soluble PD-L1. Soluble PD-1 and soluble PD-L1 refers to proteins with carboxyl-end truncations that remove the transmembrane-spanning regions and are fused to heterologous sequences, specifically the Fc portion of the human immunoglobuling G sequence (Ig) or the hexahistidine epitope tag (His). All binding studies were performed in an HTRF assay buffer consisting of dPBS supplemented with 0.1% (w/v) bovine serum albumin and 0.05% (v/v) Tween-20. For the PD-1-Ig/PD-L1-His binding assay, inhibitors were pre-incubated with PD-L1-His (10 nM final) for 15 m in 4 μl of assay buffer, followed by addition of PD-1-Ig (20 nM final) in 1 μl of assay buffer and further incubation for 15 m. PD-L1 fusion proteins from either human, cynomologous macaques, mouse, or other species were used. HTRF detection was achieved using europium crypate-labeled anti-Ig monoclonal antibody (1 nM final) and allophycocyanin (APC) labeled anti-His monoclonal antibody (20 nM final). Antibodies were diluted in HTRF detection buffer and 5 μl was dispensed on top of binding reaction. The reaction was allowed to equilibrate for 30 minutes and signal (665 nm/620 nm ratio) was obtained using an EnVision fluorometer. Additional binding assays were established between PD-1-Ig/PD-L2-His (20 and 5 nM, respectively), CD80-His/PD-L1-Ig (100 and 10 nM, respectively) and CD80-His/CTLA4-Ig (10 and 5 nM, respectively).
Recombinant Proteins. Carboxyl-truncated human PD-1 (amino acids 25-167) with a C-terminal human Ig epitope tag [hPD-1 (25-167)-3S-IG] and human PD-L1 (amino acids 18-239) with a C-terminal His epitope tag [hPD-L1(19-239)-tobacco vein mottling virus protease cleavage site (TVMV)-His] were expressed in HEK293T cells and purified sequentially by recombinant Protein A affinity chromatography and size exclusion chromatography. Human PD-L2-His (Sino Biologicals), CD80-His (Sino Biologicals), CTLA4-Ig (RnD Systems) were all obtained through commercial sources.
In general terms: Time-resolved FRET reads energy transfer from a long-lived donor to a nearby acceptor.

Sequence of PD-1/PD-L1 interaction (PD-1-Ig / PD-L1-His) (Q9NZQ7 18-239): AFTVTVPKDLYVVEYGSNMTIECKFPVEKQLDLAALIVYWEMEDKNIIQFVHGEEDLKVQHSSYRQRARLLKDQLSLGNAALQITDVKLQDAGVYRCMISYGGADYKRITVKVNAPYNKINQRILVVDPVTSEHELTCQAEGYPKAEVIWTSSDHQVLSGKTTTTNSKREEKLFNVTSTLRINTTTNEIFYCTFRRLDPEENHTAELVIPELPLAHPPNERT

In the case of `COc1cc(OCc2cccc(-c3cccc(OCC4CCCN(C)C4)c3Cl)c2C)c(Cl)cc1CNC1(C)CC(C)(C)OC1=O` (stereo not drawn) [Compound 1039], the IC50 (as a rule, the point on the concentration scale where inhibition reaches its midpoint) is 19.6 nM.
With `COc1cc(OCc2cccc(-c3cccc(OCC4CCCN(C)C4)c3Cl)c2C)c(Cl)cc1CN[C@H]1CCOC1=O` (stereo partly drawn) [Compound 1040] the figure was 6.7 nM; with `COc1cc(OCc2cccc(-c3cccc(OCC4CCCN(C)C4)c3Cl)c2C)c(Cl)cc1CN[C@@H]1CCOC1=O` (stereo partly drawn) [Compound 1041], 9.1 nM.
The same measure for `COc1cc(OCc2cccc(-c3cccc(OCC4CCCN(C)C4)c3Cl)c2C)c(Cl)cc1CN[C@H]1COC(=O)C1` (stereo partly drawn) [Compound 1042]: 5.6 nM.
`COc1cc(OCc2cccc(-c3cccc(OCC4CCCN(C)C4)c3Cl)c2C)c(Cl)cc1CN[C@H]1CCNC1=O` (stereo partly drawn) [Compound 1044] had an IC50 of 5.6 nM.
Regarding `COc1cc(OCc2cccc(-c3cccc(OCC4CCCN(C)C4)c3Cl)c2C)c(Cl)cc1CN[C@H]1CCCNC1=O` (stereo partly drawn) [Compound 1045], the IC50 worked out at 3.6 nM.
The same measure for `COc1cc(OCc2cccc(-c3cccc(OCC4CCCN(C)C4)c3Cl)c2C)c(Cl)cc1CNC1CCC(=O)NC1=O` (stereo not drawn) [Compound 1046]: 3.1 nM; for `Cc1c(COc2cc3c(cc2Cl)CN(C2CCOC2=O)C(=O)CO3)cccc1-c1cccc(OCC2CCCN(C)C2)c1Cl` (stereo not drawn) [Compound 1047]: 388 nM.
With `C=C1COc2cc(OCc3cccc(-c4cccc(OCC5CCCN(C)C5)c4Cl)c3C)c(Cl)cc2CN(C2CCOC2=O)C1` (stereo not drawn) [Compound 1048] the figure was 3830 nM.
`Cc1c(COc2cc3c(cc2Cl)CN(C2CCOC2=O)CC(O)CO3)cccc1-c1cccc(OCC2CCCN(C)C2)c1Cl` (stereo not drawn) [Compound 1049] had an IC50 of 11.5 nM.
With `CC(=O)N(Cc1cc(Cl)c(COc2cccc(-c3cccc(COc4cc(OCc5cncc(C#N)c5)c(CN(C(C)=O)[C@@H]5COC(=O)C5)cc4Cl)c3C)c2C)cc1OCc1cncc(C#N)c1)[C@@H]1COC(=O)C1` [Compound 1050] the figure was 47.3 nM.
With `Cc1c(COc2cc(OCc3cncc(C#N)c3)c(CN(C)C3(C)CCOC3=O)cc2Cl)cccc1-c1cccc(COc2cc(OCc3cncc(C#N)c3)c(CN(C)C3(C)CCOC3=O)cc2Cl)c1C` (stereo not drawn) [Compound 1051] the figure was 383 nM; with `Cc1c(COc2cc(OCc3cncc(C#N)c3)c(CN(CC3CC3)C3(C)CCOC3=O)cc2Cl)cccc1-c1cccc(COc2cc(OCc3cncc(C#N)c3)c(CN(CC3CC3)C3(C)CCOC3=O)cc2Cl)c1C` (stereo not drawn) [Compound 1052], 2500 nM; with `Cc1c(COc2cc(OCc3cncc(C#N)c3)c(CN(C)C3CC(C)OC3=O)cc2Cl)cccc1-c1cccc(COc2cc(OCc3cncc(C#N)c3)c(CN(C)C3CC(C)OC3=O)cc2Cl)c1C` (stereo not drawn) [Compound 1053], 1470 nM.
With `CCN(Cc1cc(Cl)c(OCc2cccc(-c3cccc(COc4cc(OCc5cncc(C#N)c5)c(CN(CC)C5CC(C)OC5=O)cc4Cl)c3C)c2C)cc1OCc1cncc(C#N)c1)C1CC(C)OC1=O` (stereo not drawn) [Compound 1054] the figure was 2520 nM.
